Experimental data published in patent publication US10087187B2, “Imidazopyridazine derivatives as PI3KB inhibitors” (Janssen Pharmaceutica NV, priority 2014, dated 2018).
Read-outs that look alike come from different tables or passages of the source.

Assays:
[1] = system: Akt phosphorylated at Thr308 in PC-3 cells; experiment: Cellular assay: phosphorylation of Akt (Thr308) in PC-3 cells, MSD ELISA; assay type: cell-based; conditions: 60 min incubation with compound, read-out: IC50 pAkt_Thr308
Protocol: (§1) Cellular activity of PI3Kβ inhibitors was determined by quantifying the phosphorylation of Akt in PC-3 cells. Akt phosphorylated at Ser473 and Thr308 were measured using an enzyme-linked immunosorbent assay (ELISA; Meso Scale Discovery (MSD), Gaithersburg, Md.) and specific primary antibodies from MSD.
(§2) On day 1, PC3 cells (ATCC # […]) were seeded into PerkinElmer MW96 plates at 25.000 cells per well, in 75 μl complete culture medium (DMEM (Dulbecco's Modified Eagle's Medium) high glucose, AQmedia™, D0819, Sigma-Aldrich) containing 10% heat inactivated FCS (Fetal Bovine Serum) and incubated at 37° C., 5% CO2 during 24 hours. On day 2, compound or DMSO (dimethyl sulfoxide) (0.3%) was added and cells were further incubated for 60 min at 37° C., 5% CO2 in a total volume of 100 μl of medium.
(§3) The phosphoprotein assay was executed according to vendor instructions in the Phospho-Akt (Ser473) Assay Whole Cell Lysate Kit (MSD # K15100D-3) and the Phospho-Akt (Thr308) Assay Whole Cell Lysate Kit (MSD # K151DYD-3) using the lysis, blocking and wash buffer provided.
(§4) Briefly, at the end of the cell treatment period, media were removed by aspiration and adherent cells were lysed in 50 μl ice-cold lysis buffer. MSD plates are supplied pre-coated with capture antibodies for Phospho-Akt (Ser473 and Thr308). After blocking, lysates from tissue culture plates were added and plates were washed. Then, a solution containing the detection antibody (anti-total Akt conjugated with an electrochemiluminescent compound-MSD Sulfo-tag label) was added. The signals were detected using an MSD SECTOR Imager 6000 and are proportional to the phospho-Akt titres.
(§5) Data were processed. The percentage of inhibition was plotted against the log concentration of test compounds, and the sigmoidal log concentration-effect curve of best fit was calculated by nonlinear regression analysis. From these concentration-response curves, the IC50 values were calculated. Five concentrations were used for curve fitting.

PIK3Cγ_h = PIK3Cγ_h (Homo sapiens (Human), UniProt P48736); experiment: KINOMEscan enzyme binding assay, PIK3Cγ; conditions: DiscoveRx
Protocol: (§6) Enzyme Binding Assays (KINOMEscan®) Kinase enzyme binding affinities of compounds disclosed herein were determined using the KINOMEscan technology performed by DiscoveRx Corporation, San Diego, Calif., USA (www.kinomescan.com).

MTOR_h = MTOR_h (Homo sapiens (Human), UniProt P42345); experiment: KINOMEscan enzyme binding assay, MTOR; conditions: DiscoveRx
Protocol: as §6

PIK3Cβ_h = PIK3Cβ_h (Homo sapiens (Human), UniProt P42338); experiment: KINOMEscan enzyme binding assay, PIK3Cβ; conditions: DiscoveRx
Protocol: as §6, with “(www.kinomescan.com). Table A reports the obtained Kd values (nM), with the Kd being the inhibitor binding constant: […]” for “(www.kinomescan.com).”

PIK3Cα_h = PIK3Cα_h (Homo sapiens (Human), UniProt P42336); experiment: KINOMEscan enzyme binding assay, PIK3Cα; conditions: DiscoveRx
Protocol: as §6

[2] = system: Akt phosphorylated at Ser473 in PC-3 cells; experiment: Cellular assay: phosphorylation of Akt (Ser473) in PC-3 cells, MSD ELISA; assay type: cell-based; conditions: 60 min incubation with compound, read-out: IC50 pAkt_S473
Protocol: as §1, §2, §3, §4, §5

PIK3Cδ_h = PIK3Cδ_h (Homo sapiens (Human), UniProt O00329); experiment: KINOMEscan enzyme binding assay, PIK3Cδ; conditions: DiscoveRx
Protocol: as §6, with “(www.kinomescan.com). Table A reports the obtained Kd values (nM), with the Kd being the inhibitor binding constant: […]” for “(www.kinomescan.com).”

PIK3Cδ_h, sequence (O00329 whole entry): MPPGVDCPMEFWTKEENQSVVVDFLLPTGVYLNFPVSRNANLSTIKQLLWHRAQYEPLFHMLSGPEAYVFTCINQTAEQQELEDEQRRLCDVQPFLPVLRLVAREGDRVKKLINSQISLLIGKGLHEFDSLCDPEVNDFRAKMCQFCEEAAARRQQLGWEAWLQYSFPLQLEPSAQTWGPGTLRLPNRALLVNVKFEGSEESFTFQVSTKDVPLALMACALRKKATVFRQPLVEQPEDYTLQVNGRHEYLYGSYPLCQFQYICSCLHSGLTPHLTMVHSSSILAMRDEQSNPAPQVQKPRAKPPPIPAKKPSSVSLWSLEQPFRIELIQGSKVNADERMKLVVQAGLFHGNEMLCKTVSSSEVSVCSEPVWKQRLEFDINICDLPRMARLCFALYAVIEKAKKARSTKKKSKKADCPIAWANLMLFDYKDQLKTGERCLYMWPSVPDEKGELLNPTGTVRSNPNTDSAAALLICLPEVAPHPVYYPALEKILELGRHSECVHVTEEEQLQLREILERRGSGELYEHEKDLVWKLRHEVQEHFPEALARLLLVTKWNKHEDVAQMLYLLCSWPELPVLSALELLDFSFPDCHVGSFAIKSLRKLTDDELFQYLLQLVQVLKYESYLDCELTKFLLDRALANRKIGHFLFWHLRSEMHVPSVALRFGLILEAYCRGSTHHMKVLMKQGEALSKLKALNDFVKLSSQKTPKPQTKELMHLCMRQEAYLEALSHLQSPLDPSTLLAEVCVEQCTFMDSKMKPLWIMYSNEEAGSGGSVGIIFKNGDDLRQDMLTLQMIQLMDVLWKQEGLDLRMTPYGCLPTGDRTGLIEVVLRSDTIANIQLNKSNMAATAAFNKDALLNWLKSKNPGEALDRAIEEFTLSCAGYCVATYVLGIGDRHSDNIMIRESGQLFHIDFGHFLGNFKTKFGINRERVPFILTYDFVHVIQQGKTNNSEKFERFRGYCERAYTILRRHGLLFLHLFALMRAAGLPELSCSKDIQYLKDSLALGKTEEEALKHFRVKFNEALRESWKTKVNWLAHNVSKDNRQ
PIK3Cα_h, sequence (P42336 whole entry): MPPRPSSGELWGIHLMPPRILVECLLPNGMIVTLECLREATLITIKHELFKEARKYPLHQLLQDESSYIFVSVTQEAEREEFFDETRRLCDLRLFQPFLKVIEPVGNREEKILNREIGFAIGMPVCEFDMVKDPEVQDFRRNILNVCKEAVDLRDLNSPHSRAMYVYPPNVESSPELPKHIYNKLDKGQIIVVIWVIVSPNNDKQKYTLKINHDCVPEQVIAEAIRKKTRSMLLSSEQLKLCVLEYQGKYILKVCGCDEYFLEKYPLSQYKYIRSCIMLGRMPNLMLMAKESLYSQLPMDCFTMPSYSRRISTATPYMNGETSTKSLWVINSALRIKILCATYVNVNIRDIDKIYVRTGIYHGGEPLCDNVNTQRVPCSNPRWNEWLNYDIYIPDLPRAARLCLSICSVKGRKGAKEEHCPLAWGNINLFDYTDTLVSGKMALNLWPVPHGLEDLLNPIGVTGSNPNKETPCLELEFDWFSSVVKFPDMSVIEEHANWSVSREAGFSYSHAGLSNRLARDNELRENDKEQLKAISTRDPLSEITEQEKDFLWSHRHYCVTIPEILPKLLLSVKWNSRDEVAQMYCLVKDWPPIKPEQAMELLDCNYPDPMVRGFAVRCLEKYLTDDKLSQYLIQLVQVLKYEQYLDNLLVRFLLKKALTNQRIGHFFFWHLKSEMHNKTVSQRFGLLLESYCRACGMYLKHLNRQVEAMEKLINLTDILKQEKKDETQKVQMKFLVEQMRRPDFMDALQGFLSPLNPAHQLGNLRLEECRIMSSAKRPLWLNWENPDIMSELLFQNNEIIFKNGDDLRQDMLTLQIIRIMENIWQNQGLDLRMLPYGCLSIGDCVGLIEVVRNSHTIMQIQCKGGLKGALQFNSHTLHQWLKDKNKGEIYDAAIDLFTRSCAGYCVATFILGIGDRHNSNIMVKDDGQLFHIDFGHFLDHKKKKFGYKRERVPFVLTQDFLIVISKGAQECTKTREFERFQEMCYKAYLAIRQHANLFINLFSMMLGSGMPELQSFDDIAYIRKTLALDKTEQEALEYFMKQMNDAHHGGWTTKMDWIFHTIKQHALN
PIK3Cγ_h, sequence (P48736 whole entry): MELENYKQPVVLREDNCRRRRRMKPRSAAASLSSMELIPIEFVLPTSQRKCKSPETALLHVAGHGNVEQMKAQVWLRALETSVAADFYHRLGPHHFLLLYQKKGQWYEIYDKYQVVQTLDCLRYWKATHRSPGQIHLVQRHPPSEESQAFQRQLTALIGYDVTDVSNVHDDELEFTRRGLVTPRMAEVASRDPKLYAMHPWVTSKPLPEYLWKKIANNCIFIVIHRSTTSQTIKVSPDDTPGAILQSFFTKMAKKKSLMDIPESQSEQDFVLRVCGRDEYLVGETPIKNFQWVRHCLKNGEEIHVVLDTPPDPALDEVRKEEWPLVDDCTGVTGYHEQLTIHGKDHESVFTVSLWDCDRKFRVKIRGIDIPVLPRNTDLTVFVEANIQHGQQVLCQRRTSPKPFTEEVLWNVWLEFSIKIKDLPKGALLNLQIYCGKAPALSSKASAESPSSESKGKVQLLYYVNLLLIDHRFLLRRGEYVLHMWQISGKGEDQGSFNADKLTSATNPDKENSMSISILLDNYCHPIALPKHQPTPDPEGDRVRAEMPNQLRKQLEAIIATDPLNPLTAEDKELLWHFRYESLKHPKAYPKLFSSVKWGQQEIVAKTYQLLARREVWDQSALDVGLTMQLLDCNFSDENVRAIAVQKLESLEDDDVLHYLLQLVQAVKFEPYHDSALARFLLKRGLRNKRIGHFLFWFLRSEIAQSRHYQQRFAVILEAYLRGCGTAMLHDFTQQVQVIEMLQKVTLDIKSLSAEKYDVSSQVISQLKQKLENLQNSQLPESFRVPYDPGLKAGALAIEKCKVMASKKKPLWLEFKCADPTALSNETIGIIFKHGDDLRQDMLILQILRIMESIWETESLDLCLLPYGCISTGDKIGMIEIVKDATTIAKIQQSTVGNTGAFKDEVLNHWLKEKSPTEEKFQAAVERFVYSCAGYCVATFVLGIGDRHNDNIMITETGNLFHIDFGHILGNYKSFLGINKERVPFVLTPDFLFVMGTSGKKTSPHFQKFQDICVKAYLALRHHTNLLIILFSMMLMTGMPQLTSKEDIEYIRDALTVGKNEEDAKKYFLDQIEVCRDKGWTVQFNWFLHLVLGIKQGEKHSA
PIK3Cβ_h, sequence (P42338 whole entry): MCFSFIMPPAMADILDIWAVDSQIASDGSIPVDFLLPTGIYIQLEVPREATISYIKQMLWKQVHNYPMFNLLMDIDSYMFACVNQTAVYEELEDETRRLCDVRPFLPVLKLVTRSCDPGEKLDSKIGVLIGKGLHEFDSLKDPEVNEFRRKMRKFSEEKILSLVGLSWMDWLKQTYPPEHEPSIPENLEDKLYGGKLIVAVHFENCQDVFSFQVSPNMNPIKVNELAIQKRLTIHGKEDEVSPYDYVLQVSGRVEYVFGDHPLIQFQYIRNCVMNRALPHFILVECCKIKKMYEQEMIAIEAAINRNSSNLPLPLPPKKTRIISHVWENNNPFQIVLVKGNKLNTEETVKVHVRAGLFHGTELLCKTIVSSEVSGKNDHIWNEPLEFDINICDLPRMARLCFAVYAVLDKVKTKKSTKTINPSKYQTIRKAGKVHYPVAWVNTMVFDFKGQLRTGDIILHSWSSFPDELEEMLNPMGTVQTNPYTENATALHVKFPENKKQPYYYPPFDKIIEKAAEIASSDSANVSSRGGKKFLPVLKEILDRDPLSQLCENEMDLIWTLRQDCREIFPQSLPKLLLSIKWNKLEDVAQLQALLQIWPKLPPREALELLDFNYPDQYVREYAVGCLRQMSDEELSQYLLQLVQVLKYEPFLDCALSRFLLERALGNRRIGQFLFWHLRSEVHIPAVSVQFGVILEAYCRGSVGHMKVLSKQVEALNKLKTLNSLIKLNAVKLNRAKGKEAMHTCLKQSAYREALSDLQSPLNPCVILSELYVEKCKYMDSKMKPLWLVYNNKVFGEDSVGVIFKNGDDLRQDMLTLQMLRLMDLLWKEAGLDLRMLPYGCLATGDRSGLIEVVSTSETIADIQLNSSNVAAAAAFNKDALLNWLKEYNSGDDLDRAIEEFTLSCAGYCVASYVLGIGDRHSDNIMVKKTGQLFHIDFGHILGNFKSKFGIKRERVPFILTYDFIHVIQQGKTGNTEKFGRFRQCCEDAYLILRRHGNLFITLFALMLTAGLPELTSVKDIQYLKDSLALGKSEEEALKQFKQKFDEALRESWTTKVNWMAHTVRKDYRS

SMILES	IC50 [1] [nM]	Kd (PIK3Cγ_h) [nM]	Kd (MTOR_h) [nM]	Kd (PIK3Cβ_h) [nM]	Kd (PIK3Cα_h) [nM]	IC50 [2] [nM]	Kd (PIK3Cδ_h) [nM]	IC50 ([1]; Homo sapiens, PC-3, 1 h) [nM]	IC50 ([2]; Homo sapiens, PC-3, 1 h) [nM]
Cc1c(Cc2c(CO)nc3c(N)cc(N4CCOCC4)nn23)cccc1C(F)(F)F [Compound 14b]	38	> 8130	> 30200	1.5	> 10000	60	253	–	–
Cc1c(Cc2c(CO)nc3c(N)cc(N4CCOCC4)nn23)cccc1C(F)(F)F [Compound 14c]	–	> 30200	5250	1.2	> 10000	–	194	~49	50
Cc1c(Cc2c(CO)nc3c(N)cc(N4CCOCC4)nn23)cccc1C(F)(F)F [Compound 14d]	29	–	–	–	–	67	–	–	–
Cc1c(Cc2c(CO)nc3c(N)cc(N4CCOCC4)nn23)cccc1C(F)(F)F [Compound 14e]	41	–	–	–	–	52	–	–	–
Cc1c(Cc2c(CO)nc3c(C(N)=O)cc(N4CCOCC4)nn23)cccc1C(F)(F)F [Compound 15]	–	2000	> 30200	7	1100	–	479	~43	~91
Cc1c(Cc2c(CF)nc3c(C(N)=O)cc(N4CCOCC4)nn23)cccc1C(F)(F)F [Compound 16]	–	> 3310	> 30200	10	> 10000	–	> 3310	155	123
Cc1c(Cc2c(CF)nc3c(N)cc(N4CCOCC4)nn23)cccc1C(F)(F)F [Compound 17]	–	15800	14100	3.3	17000	–	427	~50	81
CC(=O)NCc1nc2c(-c3ncc[nH]3)cc(N3CCOCC3)nn2c1Cc1cccc(C(F)(F)F)c1C [Compound 18]	–	> 30200	> 30200	2	> 30200	–	59	11	33
Cc1c(Cc2c(CO)nc3c(-c4cnc[nH]4)cc(N4CCOCC4)nn23)cccc1C(F)(F)F [Compound 19]	–	–	–	–	–	–	–	26	28
Cc1nc2c(N)cc(N3CCOCC3)nn2c1Nc1cccc(C(F)(F)F)c1CO [Compound 51]	–	–	11500	2.1	–	–	166	~81	145
Cc1nc2c(N)cc(N3CCOCC3)nn2c1Nc1cccc(C(F)(F)F)c1CN1CCC(O)C1 (stereo not shown) [Compound 74]	–	–	–	2.2	4900	–	31	26	30
Cc1nc2c(N)cc(N3CCOCC3)nn2c1Nc1cccc(C(F)(F)F)c1CN1CCC(O)C1 (stereo not shown) [Compound 77]	25	–	–	1.4	3160	58	47	–	–
Cc1nc2c(N)cc(N3CCOCC3)nn2c1Nc1cccc(C(F)(F)F)c1CN1CCC(O)C1 (stereo not shown) [Compound 78]	26	–	–	1.3	3240	51	35	–	–
Cc1nc2c(N)cc(N3CCOCC3)nn2c1Nc1ccccc1N1CCOCC1 [Compound 88]	–	8320	8710	12	11200	–	69	120	–
CCc1c(F)cccc1Cc1c(CNCCO)nc2c(N)cc(N3CCOCC3)nn12 [Compound 101]	–	–	–	–	–	–	–	> 513	> 513
Nc1cc(N2CCOCC2)nn2c(Cc3cccc(C(F)(F)F)c3C3CCN(CCO)CC3)c(CO)nc12 [Compound 105]	–	> 30200	> 30200	1.2	26300	–	537	85	–
